Experimental data reported in article PMC8589851 (Scientific Reports, 2021).
Where “and” joins values, the source holds several entries; their conditions need not be identical. Equal values may be shown once. Read-outs that look alike come from different tables or passages of the source.

Columns and labels:
[1] = test system: SARS-CoV-2 Spike pseudotyped VSV(S); experiment: microbe, parasite or virus in culture; type: cell-based; details: Severe acute respiratory syndrome coronavirus 2, A549, read-out: Hill plot-based EC-50, inhibition of virus penetration
[2] = test system: SARS-CoV-2 NanoLuc reporter virus; experiment: microbe, parasite or virus in culture; type: cell-based
native SARS-CoV-2 = details: Vero cells; cited from earlier work
[3] = cited from earlier work
[4] = 0.50–0.60 mg injected, 12 normal subjects; cited from earlier work
[5] = 0.25 mg daily for one week, cystic fibrosis patients; cited from earlier work
[6] = CF patients, cited from earlier work
[7] = 0.25 mg ouabain daily for 9 days
[8] = 0.25 mg ouabain, normal human volunteers

## C[C@@H]1O[C@@H](O[C@H]2C[C@@H](O)[C@]3(CO)[C@H]4[C@H](O)C[C@]5(C)[C@@H](C6=CC(=O)OC6)CC[C@]5(O)[C@@H]4CC[C@]3(O)C2)[C@H](O)[C@H](O)[C@H]1O [Ouabain, ouabain]
[1]
  EC50: 16 ± 1 nM
[2]
  inhibition of infectivity: 100%
[2]; Severe acute respiratory syndrome coronavirus 2, read-out: EC50, inhibition of infectivity
  EC50: 36 nM
Native SARS-CoV-2
  EC50: 24 nM
[3]; [7]
  adverse events: No adverse events were reported
  time to plateau: 4 to 5 days
[3]; [8]
  half-life: 19 to 24 h
  peak plasma concentration: 12 ng/ml and 20 nM
[4]
  adverse effects: No adverse effects were reported

## C[C@]12CC[C@H](O)C[C@H]1CC[C@@H]1[C@@H]2C[C@@H](O)[C@]2(C)[C@@H](C3=CC(=O)OC3)CC[C@]12O [Digoxigenin, digoxigenin]
[2]
  inhibition of infectivity: 100%

## C[C@H]1O[C@@H](O[C@H]2[C@@H](O)C[C@H](O[C@H]3[C@@H](O)C[C@H](O[C@H]4CC[C@@]5(C)[C@H](CC[C@@H]6[C@@H]5C[C@@H](O)[C@]5(C)[C@@H](C7=CC(=O)OC7)CC[C@]65O)C4)O[C@@H]3C)O[C@@H]2C)C[C@H](O)[C@@H]1O [Digoxin, digoxin]
[2]
  inhibition of infectivity: 100%
Native SARS-CoV-2
  EC50: 43 nM
[5]
  adverse events: no adverse events associated with the study drug

## C[C@]12CC[C@H](O)C[C@H]1CC[C@@H]1[C@@H]2CC[C@]2(C)[C@@H](C3=CC(=O)OC3)CC[C@]12O [Digitoxigenin, digitoxigenin]
[2]
  inhibition of infectivity: 100%

## C[C@H]1O[C@@H](O[C@H]2[C@@H](O)C[C@H](O[C@H]3[C@@H](O)C[C@H](O[C@H]4CC[C@@]5(C)[C@H](CC[C@@H]6[C@@H]5CC[C@]5(C)[C@@H](C7=CC(=O)OC7)CC[C@]65O)C4)O[C@@H]3C)O[C@@H]2C)C[C@H](O)[C@@H]1O [Digitoxin, digitoxin]
[2]
  inhibition of infectivity: 100%
[6]; 0.1 mg/day by mouth, by day 28
  peak serum concentration: 10 ng/ml and 13 nM
[6]; 0.05 or 0.1 mg/day for 28 days
  adverse events: no adverse events were associated with the study drug
